Data: patent US20240382600A1, “BIFUNCTIONAL DEGRADERS COMPRISING A TEAD BINDER” (Novartis AG, priority 2021, published 2024)

How the values were obtained:
[1] = target: Avi-humanTEAD4^217-434 / Cy5 labeled humanYAP^60-100 (Homo sapiens (Human), UniProt Q15561); assay: In-vitro biochemical TR-FRET assay (TEAD4/YAP); format: binding; conditions: 1 h at room temperature
[2] = system: YAP-dependent transcription in NCI-H2052 Tet-On shYAP_2371 pLenti6 MCAT_Luc cells; assay: YAP reporter gene activity assay (MCAT-Luc), NCI-H2052; format: cell-based; conditions: Homo sapiens, 24 hrs
[3] = system: YAP-dependent transcription in SF268-MCAT_Luc_dox-i-shYAPLevy (Clone 13) cells; assay: YAP reporter gene activity assay (MCAT-Luc), SF268; format: cell-based; conditions: Homo sapiens, SF-268; SF268 MCAT_Luc, 24 hrs
[4] = system: MKN-45/Ubc-luc cells (unspecific inhibition of luciferase expression or activity); assay: Reporter gene assay specificity control (Ubc-Luc), MKN-45; format: cell-based; conditions: Homo sapiens; MKN-45/Ubc-luc specificity control, 24 hrs
Summary of the method: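 MKN-45 cells stably carrying a ubiquitin C promoter–firefly luciferase construct, treated the day after seeding with eleven 2-fold compound dilutions (0.1% DMSO final) for 24 hrs at 37° C. Luminescence read 5 min after Steady Glo addition; cell-free background subtracted, as a control for nonspecific luciferase inhibition.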

[5] = system: NCI-H2052 Tet-On shYAP_2371 pLenti6 MCAT_Luc cells; assay: Proliferation assay (resazurin/AlamarBlue), NCI-H2052; format: cell-based; conditions: Homo sapiens; NCI-H2052, 72 hours
[6] = system: SF268-MCAT_Luc_dox-i-shYAPLevy (Clone 13) cells; assay: Proliferation assay (resazurin/AlamarBlue), SF268; format: cell-based; conditions: Homo sapiens, SF-268; SF268, 72 hours
MKN-45/Ubc-luc cells = assay: Proliferation assay (resazurin/AlamarBlue), MKN-45; format: cell-based; conditions: Homo sapiens; MKN-45, 72 hours
Summary of the method: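 MKN-45 cells carrying constitutive Ubc-driven luciferase reporter, treated the day after seeding with eleven 2-fold dilutions (0.1% DMSO) for 72 h at 37 °C. Viability by resazurin, referenced to day-0 plate; GI50 from % growth (100 none, 0 stasis, −100 kill) and residual viability at top concentration.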

[7] = target: TEAD1-GFP in HEK293A cells (Homo sapiens (Human), UniProt P28347); assay: TEAD1 protein abundance flow cytometry assay in HEK293A; format: cell-based; conditions: HEK293A TEAD1-GFP-CHYSEL-mCherry sensor cells, 24 h, GFP signal by flow cytometry
Summary of the method: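 HEK293A stably expressing bicistronic TEAD1-GFP-CHYSEL-mCherry treated 24 h at 37° C with 10-point 3-fold series from 10 μM (0.1% DMSO), duplicate. Median GFP of 2,500 single cells by flow cytometry, normalized to parental HEK293A (0%) and DMSO (100%); DC50 from concentration-response curves.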

Sequence of Avi-humanTEAD4^217-434 / Cy5 labeled humanYAP^60-100 (Q15561 217-434): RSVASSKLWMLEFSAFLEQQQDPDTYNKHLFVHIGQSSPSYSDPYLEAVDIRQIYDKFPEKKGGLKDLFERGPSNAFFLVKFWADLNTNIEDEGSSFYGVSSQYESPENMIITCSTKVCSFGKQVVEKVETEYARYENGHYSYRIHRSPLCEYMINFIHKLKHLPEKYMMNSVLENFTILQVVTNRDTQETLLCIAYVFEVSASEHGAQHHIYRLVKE
Sequence of TEAD1-GFP in HEK293A cells (P28347 whole entry): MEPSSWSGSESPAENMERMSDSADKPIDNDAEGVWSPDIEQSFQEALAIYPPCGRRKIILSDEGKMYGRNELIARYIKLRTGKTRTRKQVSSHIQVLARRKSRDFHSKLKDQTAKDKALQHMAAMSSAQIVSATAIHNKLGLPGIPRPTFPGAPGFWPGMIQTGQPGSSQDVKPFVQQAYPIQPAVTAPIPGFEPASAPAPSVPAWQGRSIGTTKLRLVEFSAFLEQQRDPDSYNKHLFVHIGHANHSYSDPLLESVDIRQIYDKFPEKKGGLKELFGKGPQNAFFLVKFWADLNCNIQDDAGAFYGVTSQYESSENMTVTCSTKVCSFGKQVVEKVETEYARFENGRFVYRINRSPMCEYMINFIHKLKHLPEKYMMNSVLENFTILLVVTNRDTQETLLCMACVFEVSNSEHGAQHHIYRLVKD

- IC50 [1]: 1 nM
- IC50 [2]: 15 nM
- IC50 [3]: 0.85 nM
- IC50 [4]: > 2000 nM
- GI50 [5]: 62 nM
- GI50 (MKN-45/Ubc-luc cells): > 2000 nM
- DC50 [7]: 4 nM
Structure (SMILES): COc1ccc(C(=O)N2CCC(CN3CCN(C(=O)[C@H]4CC[C@H](NC[C@]5(c6ccccc6)Oc6cc(F)c(Cl)c(-c7c(C(N)=O)ccc(OC)c7F)c6[C@@H]5C)CC4)CC3)CC2)cc1N1CCC(=O)NC1=O (atropisomer, axis not shown) [Example 17, 2-((2S,3S,4S)-5-chloro-2-((((1r,4S)-4-(4-((1-(3-(2,4-dioxotetrahydropyrimidin-1(2H)-yl)-4-methoxybenzoyl)piperidin-4-yl)methyl)piperazine-1-carbonyl)cyclohexyl)amino)methyl)-6-fluoro-3-methyl-2-phenyl-2,3-dihydrobenzofuran-4-yl)-3-fluoro-4-methoxybenzamide]
- GI50 [6]: 49 nM
